ChEMBL document CHEMBL3244137, “Synthesis and antimicrobial activity of azasteroid-type compounds and related systems. Effect of hydrophilic and lipophilic groups on activity” (1977)

Key:
Format in all cases: functional
[1] = tested on: Bacillus subtilis; assay: Growth inhibition of Bacillus subtilis at 10 ug/ml
[2] = tested on: Pseudomonas fluorescens; assay: Growth inhibition of Pseudomonas fluorescens at 90 ug/ml
[3] = tested on: Bacillus subtilis; assay: Growth inhibition of Bacillus subtilis at 91 ug/ml
[4] = tested on: KB; assay: Plating efficiency of human KB cells at 150 ug/ml
[5] = tested on: Pseudomonas fluorescens; assay: Growth inhibition of Pseudomonas fluorescens at 91 ug/ml
[6] = tested on: KB; assay: Growth inhibition of human KB cells at 25 ug/ml; conditions: read-out: GI
[7] = tested on: KB; assay: Growth inhibition of human KB cells at 150 ug/ml; conditions: read-out: GI
[8] = tested on: KB; assay: Plating efficiency of human KB cells at 12.5 ug/ml
[9] = tested on: KB; assay: Growth inhibition of human KB cells at 12.5 ug/ml; conditions: read-out: GI
[10] = tested on: KB; assay: Plating efficiency of human KB cells at 25 ug/ml
[11] = tested on: Bacillus subtilis; assay: Growth inhibition of Bacillus subtilis at 90 ug/ml
[12] = tested on: Pseudomonas fluorescens; assay: Growth inhibition of Pseudomonas fluorescens at 5 ug/ml
[13] = tested on: Bacillus subtilis; assay: Growth inhibition of Bacillus subtilis at 5 ug/ml; conditions: for inhibition at 5 µg/mL: Bacillus subtilis
[14] = tested on: Pseudomonas fluorescens; assay: Growth inhibition of Pseudomonas fluorescens at 50 ug/ml
[15] = tested on: Bacillus subtilis; assay: Growth inhibition of Bacillus subtilis at 50 ug/ml
[16] = tested on: KB; assay: Plating efficiency of human KB cells at 50 ug/ml
[17] = tested on: KB; assay: Growth inhibition of human KB cells at 50 ug/ml; conditions: read-out: GI
[18] = tested on: Bacillus subtilis; assay: Growth inhibition of Bacillus subtilis at 45 ug/ml
[19] = tested on: Pseudomonas fluorescens; assay: Growth inhibition of Pseudomonas fluorescens at 45 ug/ml
[20] = tested on: Bacillus subtilis; assay: Growth inhibition of Bacillus subtilis at 20 ug/ml

c1cnc2c(c1)-c1[nH]ncc1CC2
inhibition at 10 µg/mL [1]: 100%
inhibition at 90 µg/mL [2]: 0%

OCCOc1ccc2c(c1)CCc1cn[nH]c1-2
inhibition at 91 µg/mL [3]: 0%

COc1ccc2c(c1)CCc1cnoc1-2
Activity [4]: 0%
inhibition at 91 µg/mL [5]: 0%
inhibition of growth at 25 µg/mL [6]: 33%
inhibition of growth at 150 µg/mL [7]: 100%
Activity [8]: 100%
inhibition of growth at 12.5 µg/mL [9]: 0%
inhibition at 91 µg/mL [3]: 100%
Activity [10]: 67%

COc1ccc2c(c1)CCc1sc(N)nc1-2.Cl
inhibition at 90 µg/mL [11]: 100%
inhibition at 90 µg/mL [2]: 25%
inhibition at 5 µg/mL [12]: 0%
inhibition (INH) [13]: 47%

CN(C)CCOc1ccc2c(c1)CCc1cn[nH]c1-2
inhibition at 91 µg/mL [3]: 0%

COc1ccc2c3c(ccc2c1)-c1[nH]ncc1CC3
inhibition at 90 µg/mL [2]: 48%
inhibition at 91 µg/mL [3]: 7.8%

CCCCCCOc1ccc2c(c1)CCc1sc(N)nc1-2
inhibition of growth at 25 µg/mL [6]: 100%
inhibition (INH) [13]: 100%
Activity [10]: 0%

CCCCCCOc1ccc2c(c1)CCc1cnn(CCN(CCCl)CCCl)c1-2
inhibition at 5 µg/mL [13]: 100%

COc1ccc2c(c1)CCc1sc(N)nc1-2
inhibition at 5 µg/mL [13]: 40%

CCCCCCOc1ccc2c(c1)CC[C@]1(C)C(=O)NN=C21
inhibition at 91 µg/mL [5]: 0%
inhibition at 91 µg/mL [3]: 0%

CCCCCCOc1ccc2c(c1)CCc1sc(N)nc1-2.Cl
inhibition at 90 µg/mL [11]: 60%
inhibition at 90 µg/mL [2]: 25%
inhibition at 5 µg/mL [12]: 11%
inhibition (INH) [13]: 12%

C[n+]1cccc2c1CCc1cn[nH]c1-2
inhibition at 91 µg/mL [3]: 50%

CCCCCCCCCCCCCCCCOc1ccc2c(c1)CCc1cn[nH]c1-2
inhibition at 91 µg/mL [3]: 0%

CCCCCCOc1ccc2c(c1)CCc1cnn([C@@H]3O[C@H](COC(C)=O)[C@@H](OC(C)=O)[C@H](OC(C)=O)[C@H]3OC(C)=O)c1-2
inhibition at 91 µg/mL [5]: 0%
inhibition at 50 µg/mL [14]: 0%
inhibition at 91 µg/mL [3]: 100%
inhibition at 50 µg/mL [15]: 100%

COc1ccc2c(c1)CCc1cnn([C@@H]3O[C@H](COC(C)=O)[C@@H](OC(C)=O)[C@H](OC(C)=O)[C@H]3OC(C)=O)c1-2
Activity [16]: 0%
inhibition at 91 µg/mL [5]: 100%
inhibition of growth at 50 µg/mL [17]: 100%
inhibition at 91 µg/mL [3]: 100%
inhibition at 5 µg/mL [13]: 100%

COc1ccc2c(c1)CCc1cnn(CCSCCCl)c1-2
inhibition at 45 µg/mL [18]: 100%

CCCCCCOc1ccc2c(c1)CCc1cn[nH]c1-2
inhibition at 45 µg/mL [19]: 0%
inhibition at 45 µg/mL [18]: 100%

CN(C)CCOc1ccc2c3c(ccc2c1)-c1[nH]ncc1CC3
inhibition at 91 µg/mL [5]: 0%
inhibition at 91 µg/mL [3]: 100%

CCCCCCOc1ccc2c3c(ccc2c1)-c1[nH]ncc1CC3
inhibition at 91 µg/mL [3]: 100%

COc1ccc2c(c1)CCc1c[nH]nc1-2
inhibition at 91 µg/mL [3]: 0%

CCCCCCOc1ccc2c(c1)CCc1cnoc1-2
inhibition at 45 µg/mL [19]: 0%
inhibition at 91 µg/mL [3]: 100%
inhibition at 45 µg/mL [18]: 0%

CN(C)CCOc1ccc2c3c(ccc2c1)C(=O)CCC3
inhibition at 91 µg/mL [3]: 100%

COc1ccc2c(c1)CC[C@]1(C)C(=O)NN=C21
inhibition at 91 µg/mL [3]: 0%

COc1ccc2c(c1)CCc1cnn(CCN(CCCl)CCCl)c1-2
inhibition at 20 µg/mL [20]: 100%
